Reference: patent US7709002B1, “Mutated ras peptides for generation of CD8+Cytotoxic T lymphocytes” (The United States of America as represented by the …, priority 1996, dated 2010)
Each block holds one substance with its values, some of them ahead of it.

Assays:
[1] = target: T1, human HLA-A2 (Homo sapiens, UniProt P04439, D140Y/D185E/D98H/E176V/E277Q/G131W/G231S/I119V/I121R/I166T/I218V/L300P/L318F/N151K/N90K/P208A/P217A/Q86G/Q94H/R138H/R169H/T345S); experiment: HLA-A2 binding bioassay on T2 cells (flow cytometry); conditions: T2 bioassay
T1 construct: The 174CEM.T2 cell line (“T2”), (transport deletion mutant); endogenous in cells; host or cells: 174CEM.T2 (T2) human cell line

[2] = system: HLA-A2+ peptide-pulsed targets; experiment: Generation and cytotoxicity of ras4-12(V12)-specific CD8+ CTL line from a normal HLA-A2+ donor; type: cell-based, human; conditions: wild-type printed as wild-type ras peptide
[3] = system: T2 cell line as target of CD8+ CTL line of RAS patient 32; experiment: 51Cr-release cytotoxicity of CD8+ CTL line of RAS patient 32 against peptide-pulsed T2 targets; type: cell-based, human; conditions: peptide 10 μg/ml, IVS cycle 7 (FIG. 5)
Experimental: FIG. 5. Cytolytic activity by CD8^+ CTL line of RAS patient 32 is peptide-specific. The CD8^+ CTL line of RAS patient 32 (see FIG. 3) was assayed against the T2 cell line as a target, incubated with and without different ras peptides (10 μg/ml), as shown. In parallel, the extent of NK activity was evaluated against K562 cells. Cytotoxicity was determined by ^51Cr-release, and the results expressed at different E/T ratios following IVS cycle 7. Similar results were observed using the second, independently-derived CD8^+ CTL line as described in Table 6.
IVS cycles for evaluation of CD8^+ T cell responses from HLA-A2+Patients. Freshly-thawed PBMC (from ras patients 32 and 33), derived pre-vaccination and post-third vaccination, were enriched in T lymphocytes by passage over nylon wool columns (Robbins Scientific, Sunnyvale, Calif.) and then depleted of CD4^+ T cells by negative selection via panning on anti-CD4 MAb-coated T25 flasks (Applied Immune Sciences, Santa Clara, Calif.). For the first IVS cycle, CD8^+ enriched lymphocytes (5×10^5/well) were cultured in 24-well plates with irradiated, autologous PBMC (5×10^6/well) as APC which had been preincubated for 3 hours with the appropriate mutant ras peptide ([…]) plus human β2-microglobulin (10 μg/ml) (Calbiochem, San Diego, Calif.). […] IL-2 (10 U/ml) was added 3 days later. After an additional 7 days, viable cells (2-5×10^5/well) were re-cultured by weekly stimulation with APC pre-pulsed with peptide/β2-microglobulin, and IL-2 added one day later. After the third or fourth IVS cycle, autologous PBMC were replaced with EBV-transformed, autologous BLCL (5×10^5/well) as APC. […] CTL activity was evaluated from cultures 5 to 6 days after Ag restimulation.
Cytotoxic response. Cytotoxicity was examined by a conventional ^51Cr-release assay, as described (6). Briefly, target cells (i.e. T2, C1R-A2, BLCL, K562) were radiolabeled with 200 μCi of Na2[^51Cr]04 (Amersham) for 60 minutes at 37° C., followed by thorough washing to remove unincorporated isotope. Effectors and targets (1×10^4/well) were incubated in 96-well, U-bottomed plates (Costar) at various effector target (E/T) ratios in the absence and presence of peptide (+/−monoclonal antibody (MAb) directed against CD4, CD8 or HLA-A2 molecules (clone BB7.2 from ATCC)) for up to 6 hours. After incubation, supernatants were collected using a Supernatant Collection System (Skatron, Sterling, Va.) and radioactivity measured in a γ-counter (Packard Instruments, Downers Grove, Ill.). Cytotoxic activity was defined as percent specific release of ^51Cr and determined by the equation: [(experimentalcpm−spontaneouscpm)/maximumcpm−spontaneouscpm)]×100. Results were expressed as the mean±SEM of triplicate cultures. […]

[4] = system: C1R-A2 targets / autologous EBV-B cells as targets of CD8+ CTL line of patient 29; experiment: 51Cr-release cytotoxicity of CD8+ CTL line of patient 29 against C1R-A2 or autologous EBV-B targets; type: cell-based, human; conditions: patient 29 lymphocytes after IVS cycle 7 (FIG. 9A)
Experimental: FIGS. 9A and 9B. Production of a peptide-specific CD8^+ T cell line from post-vaccinated lymphocytes of patient 29. FIG. 9A: A CD8^+ CTL line was established from post-vaccinated PBMC of patient 29 and assayed for peptide specificity against C1R-A2 targets. Cytotoxicity was determined by ^51Cr-release, and the results expressed at different effector/target ratios following IVS cycle 7. FIG. 9B: Using this CD8^+ CTL line, the requirement for HLA-A2 in peptide presentation (by autologous EBV-B cells as targets) was determined in blocking experiments using MAb (clone BB7.2; ascites=1:30 dilution) directed against that molecule (or using an isotype-matched MAb). […] CD4 and CD8 MAbs were as described for FIGS. 8A and 8b. Control lysis in the absence of peptide or in the presence of ras5-14(Gly12) was <3%.
(§1) Cytotoxic response. Cytotoxicity was examined by a conventional ^51Cr-release assay, as described (6). […] After incubation, supernatants were collected using a Supernatant Collection System (Skatron, Sterling, Va.) and radioactivity measured in a γ-counter (Packard Instruments, Downers Grove, Ill.). Cytotoxic activity was defined as percent specific release of ^51Cr and determined by the equation: [(experimentalcpm−spontaneouscpm)/maximumcpm−spontaneouscpm)]×100. Results were expressed as the mean±SEM of triplicate cultures. […]

[5] = system: SW480 colon carcinoma cell line (HLA-A2+, rasVal12+); experiment: 51Cr-release cytotoxicity of CTL against SW480 colon carcinoma cells; type: cell-based, human
Experimental: FIGS. 10A and 10B. Anti-ras Val12-specific CTL from patient 29 lyse SW480 tumor targets in the absence of exogenous peptide. FIG. 10A: Anti-ras Val12-specific CD8^+ CTL from patient 29 were assayed against the SW480 colon carcinoma cell line (HLA-A2^+, rasVal12+) in the absence of exogenous peptide, with or without IFN-γ pretreatment (250 U/ml for 24 hr) of the target cells. CD8^+ CTL reactive with the […] peptide were used as an irrelevant effector cell population. Cytotoxicity was determined by ^51Cr-release, and the results expressed at different effector/target ratios. FIG. 10B: In parallel to 10A, anti-ras or anti-MART-1-specific CTL were assayed against SW480 (±IFN-γ pretreatment) at an effector/target ratio of 10/1 in the absence or presence of exogenous peptide (5 μg/ml). […] Flow cytometric analysis of SW480 cells for expression of HLA-A2: untreated=65.4% with MFI of 29.8; IFN-γ-pretreated=99.5% with MFI of 349.6. Flow cytometric analysis of SW480 cells for expression of ICAM-1: untreated=16.0% with MFI of 30.3; IFN-γ-pretreated=98.6% with MFI of 181.9.
as §1
Studies were also carried out to determine whether such peptide-induced CD8^+ CTL could recognize a processed form of the corresponding mutant ras protein. […] In contrast to the CD4^+ analysis, which measured lymphoproliferation to soluble protein, the CD8^+ CTL analysis reflected lytic ability against SW480 cells harboring the naturally-occurring mutation in the absence of exogenously added peptide. […]

[6] = system: CD4+ T cell line of RAS patient 43; experiment: Lymphoproliferation (3H-thymidine uptake) of PBMC cultures / CD4+ T cell line of RAS patient 43; type: cell-based, human; conditions: for Proliferation Response cpm(± SEM) / Proliferation Response SI (stimulation index): 4th IVS
[7] = system: CD4+ T cell line of RAS patient 43; experiment: Proliferation of patient 43 CD4+ T cell line to ras protein from tumor cell extracts captured on pan-ras MAb RAS 10 and presented by autologous BLCL; type: cell-based, human
[8] = system: CD4+ T cell line of patient 29; experiment: Lymphoproliferation (3H-thymidine uptake) of PBMC cultures / CD4+ T cell line of patient 29; type: cell-based, human
Source text: In vitro stimulation (IVS) cycles for evaluation of CD4^+ T cell responses. IVS cycles were established to: (i) amplify detection of a low proliferative response, (ii) compare “pre-immune” to “post-immune” lymphocytes over a period to time for assessment of potential peptide-specific reactivity, and (iii) derive peptide-specific CD4^+ T cell lines in culture for detailed phenotypic and functional characterization. […]
Proliferation response. […] Cells were collected with a TOMTEC MACH II 96 harvester (Wallace, Inc., Gaithersburg, Md.) and incorporated radioactivity was measured by liquid scintillation spectroscopy (1205 Betaplate flat bed LS counter; Wallace). MHC class I or II restriction was analyzed in MAb blocking experiments using anti-HLA-A, B, C (clone G46-2.6) or anti-HLA-DR, anti-HLA-DP or anti-HLA-DQ (clones TU36, HI43 or TU169, respectively) (all from Pharmingen). […] Results were expressed as the mean cpm±SEM of triplicate cultures or stimulation index, which was calculated by dividing the cpm of experimental cultures (means counts of triplicate wells) by the cpm of unstimulated control cultures (mean counts of triplicate wells).

[9] = Post-Immune culture, peptide 3 μg/ml
[10] = Post-Immune culture, peptide 10 μg/ml
[11] = Post-Immune culture, peptide 30 μg/ml
[12] = Pre-Immune culture, peptide 3 μg/ml
[13] = Pre-Immune culture, peptide 10 μg/ml
[14] = Pre-Immune culture, peptide 30 μg/ml
[15] = Pre-Immune culture, peptide 100 μg/ml

Binding to HLA-A2 on T2 cells (in words) [1]: failed to bind to HLA-A2
Substance: ras4-12(G12): proto-ras 9-mer sequence positions 4-12 with Gly at position 12 (YKLVVVGAG)
Generation of peptide-specific CTL line / lysis of peptide-pulsed targets (in words) [2]: No lysis was detectable

Substance: Lys-Leu-Val-Val-Val-Gly-Ala-Val-Gly-Val [ras5-14(Val12)]
Sensitization of T2 targets for lysis (in words) [3]: failed to stimulate lysis | Peptide-specific lysis of C1R-A2 targets (in words) [4]: displayed peptide-specific, cell-mediated lysis | Effect of exogenous peptide on anti-rasVal12 CTL-mediated lysis of SW480 ([5]; peptide 5 μg/ml, E/T 10/1 (FIG. 10B), control printed as wild-type ras peptide): enhanced | Lysis of SW480 by anti-MART CTL in presence of exogenous peptide ([5]; with or without IFN-γ (FIG. 10B)): failed to lyse SW480 target cells

Substance: Lys-Leu-Val-Val-Val-Gly-Ala-Gly-Gly-Val-Gly-Lys-Ser (KLVVVGAGGVGKS) [ras5-17(Gly12)]
Proliferation Response cpm(± SEM) ([6]; Post-Immune culture (post-third vaccination), peptide 100 μg/ml): 640 ± 23 cpm | Proliferation Response SI (stimulation index) [6, 9]: 1.0 | Proliferation Response cpm(± SEM) [6, 9]: 694 ± 19 cpm | Proliferation Response SI (stimulation index) [6, 10]: 1.1 | Proliferation Response cpm(± SEM) [6, 10]: 725 ± 27 cpm | Proliferation Response SI (stimulation index) [6, 11]: 1.2 | Proliferation Response cpm(± SEM) [6, 11]: 819 ± 142 cpm | Proliferation Response SI (stimulation index) ([6]; Post-Immune culture, peptide 100 μg/ml): 1.0 | Proliferation Response SI (stimulation index) [6, 12]: 0.9 | Proliferation Response cpm(± SEM) [6, 12]: 824 ± 255 cpm | Proliferation Response SI (stimulation index) [6, 13]: 1.1 | Proliferation Response cpm(± SEM) [6, 13]: 768 ± 257 cpm | Proliferation Response SI (stimulation index) [6, 14]: 1.0 | Proliferation Response cpm(± SEM) [6, 14]: 849 ± 14 cpm | Proliferation Response SI (stimulation index) [6, 15]: 0.9 | Proliferation Response cpm(± SEM) [6, 15]: 790 ± 456 cpm | Proliferation, control culture (cpm±SEM) ([6]; T cells+BLCL+peptide 10 μg/ml, IVS cycle 15 (FIG. 2B)): 7,690±383 cpm | Proliferation Response cpm(± SEM) ([7]; Table 5: peptide 10 μg/ml, RAS 10 coating +, BLCL +): 8,844 ± 753 cpm | Proliferation Response cpm(± SEM) ([7]; peptide 30 μg/ml, wells pre-coated with RAS 10, BLCL as APC): 8,130 ± 314 cpm | Proliferation, control culture (cpm±SEM) ([8]; T cells+EBV-B cells+peptide 3 μg/ml, IVS cycle 4 (FIG. 8B), without peptide 19,256±1926): 18,116±1474 cpm | Peptide-induced proliferation of patient 29 post-vaccination PBMC (in words) ([8]; post-vaccination, following IVS (FIG. 8A)): no proliferative response was detectable
